In US11407979B2, “Intermittent starvation techniques to prolong functional lifetime of liver cells in culture” (Colorado State University Research Foundation, priority 2017, dated 2022):

Tests used:
[1] = tested on: primary human hepatocytes in micropatterned co-cultures (MPCCs)
[2] = tested on: primary human hepatocytes in micropatterned co-cultures (MPCCs); test: Hepatocyte island area (phase contrast) and polarization (CDCFDA bile canaliculi staining) in MPCCs; assay type: cell-based; conditions: metformin treated versus non-starved control MPCCs
3T3-J2 fibroblasts = test: Fibroblast density in MPCCs, live cell imaging of nuclei (Hoechst 33342); assay type: cell-based, murine; conditions: metformin treated MPCCs, 4 weeks of culture

| Structure (SMILES) | identified as toxic (albumin or urea below 50% of DMSO control) [1] | TC50 values for albumin production, non-starved cells compared with starved cells [1] | TC50 values for urea production, non-starved cells compared with starved cells [1] | also measured |
| --- | --- | --- | --- | --- |
| Clc1ccc(COC(Cn2ccnc2)c2ccc(Cl)cc2Cl)c(Cl)c1 (stereo not drawn) [miconazole] | toxic |  |  |  |
| Cc1c(C)c2c(c(C)c1O)CCC(C)(COc1ccc(CC3SC(=O)NC3=O)cc1)O2 (stereo not drawn) [troglitazone] |  | similar | similar |  |
| CN(C)C(=N)N=C(N)N [metformin] |  |  |  | hepatocyte island area [2]: not significantly higher; hepatocyte polarization [2]: not significantly higher; fibroblast numbers (3T3-J2 fibroblasts): did not change |
| CN1C(C(=O)Nc2ccccn2)=C(O)c2ccccc2S1(=O)=O [piroxicam] |  | similar | similar |  |
| C[C@]12C=CC(=O)C=C1CC[C@@H]1[C@@H]2C(=O)C[C@@]2(C)[C@H]1CC[C@]2(O)C(=O)CO [prednisone] | toxic |  |  |  |
